Laboratory results: ChEMBL document CHEMBL1201862, “PubChem BioAssay data set” (2004)
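Interpolation was linear, between the two tested concentrations surrounding the appropriate level; five concentrations were tested over 48 hours in 96-well plates. At the GI50, growth is halved.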 The source made the active and inactive calls. Rule as the data show it: active = GI50 up to about 1.1 µM and inactive = higher.

Tests used:
Test in all cases: DTP human tumour cell line panel, 48 h
NCI-H522 = system: NCI-H522
SF-295 = system: SF-295
HCC 2998 = system: HCC 2998
SF-539 = system: SF-539
RPMI-8226 = system: RPMI-8226
OVCAR-3 = system: OVCAR-3
MOLT-4 = system: MOLT-4
HCT-116 = system: HCT-116
SNB-19 = system: SNB-19
HOP-92 = system: HOP-92
HL-60 = system: HL-60
SW-620 = system: SW-620
SK-MEL-2 = system: SK-MEL-2
CAKI-1 = system: CAKI-1
LOX IMVI = system: LOX IMVI
SR = system: SR

Measured: GI50

COCCCNC(=O)C1C(=O)N(CCCOC)C(=O)/C1=N\N (configuration not stated)
inactive: NCI-H522 > 100 µM | SF-295 > 100 µM | HCC 2998 > 100 µM | SF-539 > 100 µM | RPMI-8226 > 100 µM | OVCAR-3 > 100 µM | MOLT-4 > 100 µM | HCT-116 > 100 µM | SNB-19 > 100 µM | HOP-92 > 100 µM | HL-60 > 100 µM | SW-620 > 100 µM | SK-MEL-2 > 100 µM

NCCCNCc1c2ccccc2c(CNCCCN)c2ccccc12
inactive: NCI-H522 5.96 µM | SF-295 22.3 µM | HCC 2998 17 µM | SF-539 14.6 µM | OVCAR-3 28.3 µM | MOLT-4 12 µM | HCT-116 5.35 µM | SNB-19 33.2 µM | HOP-92 11.5 µM | HL-60 14.4 µM | SW-620 6.84 µM | CAKI-1 30.5 µM | SK-MEL-2 14.9 µM

Cn1c(=O)c(/N=N/c2c(=O)n(C)c(=O)n3c2[nH]c2ccccc23)c2[nH]c3ccccc3n2c1=O
inactive: NCI-H522 66.5 µM | SF-295 12.4 µM | HCC 2998 > 100 µM | SF-539 57.4 µM | RPMI-8226 > 100 µM | OVCAR-3 > 100 µM | HCT-116 6.95 µM | SNB-19 13.2 µM | HOP-92 94.2 µM | LOX IMVI 6.24 µM | HL-60 > 100 µM | SW-620 > 100 µM | CAKI-1 > 100 µM | SK-MEL-2 > 100 µM

COC(=O)c1c/c(=N\NC(=O)CC(=O)Nc2ccccc2Cl)c2ccccc2o1
inactive: NCI-H522 > 100 µM | SF-295 > 100 µM | HCC 2998 65.3 µM | SF-539 > 100 µM | RPMI-8226 > 100 µM | OVCAR-3 > 100 µM | MOLT-4 > 100 µM | HCT-116 > 100 µM | SNB-19 > 100 µM | LOX IMVI > 100 µM | HL-60 > 100 µM | SR > 100 µM | SW-620 > 100 µM | CAKI-1 > 100 µM | SK-MEL-2 > 100 µM

Cc1ccc(S(=O)(=O)NC(=O)NCCc2ccccc2)cc1
inactive: NCI-H522 73.8 µM | SF-295 > 100 µM | HCC 2998 > 100 µM | SF-539 > 100 µM | RPMI-8226 > 100 µM | OVCAR-3 > 100 µM | MOLT-4 > 100 µM | HCT-116 > 100 µM | SNB-19 > 100 µM | HOP-92 > 100 µM | LOX IMVI > 100 µM | HL-60 74.1 µM | SW-620 > 100 µM | CAKI-1 > 100 µM | SK-MEL-2 > 100 µM

OCC(O)C(O)C(O)C(O)c1nnn[nH]1 (configuration not stated)
inactive: NCI-H522 > 100 µM | SF-295 > 100 µM | SF-539 > 100 µM | RPMI-8226 > 100 µM | OVCAR-3 > 100 µM | MOLT-4 > 100 µM | HCT-116 > 100 µM | HOP-92 > 100 µM | LOX IMVI > 100 µM | HL-60 > 100 µM | SR > 100 µM | SW-620 > 100 µM | CAKI-1 > 100 µM | SK-MEL-2 > 100 µM

O=C(CSc1nnc(-c2ccc(/N=C\c3ccc(Cl)cc3)cc2)o1)Nc1ccc(Cl)cc1Cl
inactive: NCI-H522 27 µM | SF-295 27.2 µM | HCC 2998 > 100 µM | SF-539 22.2 µM | RPMI-8226 32.4 µM | MOLT-4 24.3 µM | HCT-116 22 µM | SNB-19 31 µM | HOP-92 22.3 µM | HL-60 33.9 µM | SW-620 40.2 µM | CAKI-1 > 100 µM | SK-MEL-2 25.2 µM

Cc1nc(N2N=C(c3ccc(Cl)cc3)CCC2=O)sc1[N+](=O)[O-]
inactive: NCI-H522 > 100 µM | SF-295 > 100 µM | HCC 2998 > 100 µM | SF-539 > 100 µM | RPMI-8226 > 100 µM | OVCAR-3 > 100 µM | MOLT-4 > 100 µM | HCT-116 > 100 µM | SNB-19 > 100 µM | LOX IMVI > 100 µM | HL-60 > 100 µM | SR > 100 µM | SW-620 > 100 µM | CAKI-1 > 100 µM | SK-MEL-2 > 100 µM

COC(=O)C1=C(C[S+]([O-])c2ccc([N+](=O)[O-])cc2[N+](=O)[O-])ON(C)C1c1ccccc1 (configuration not stated)
inactive: NCI-H522 17.7 µM | SF-295 46.8 µM | HCC 2998 > 37.8 µM | SF-539 21.9 µM | RPMI-8226 13.4 µM | OVCAR-3 43.2 µM | MOLT-4 17.4 µM | HCT-116 34 µM | SNB-19 32.8 µM | LOX IMVI 14.9 µM | HL-60 7.66 µM | SW-620 15.7 µM | CAKI-1 28 µM | SK-MEL-2 37 µM

Cc1ccc(NC(=O)c2cc3cc(/N=N/c4ccccc4C(=O)O)ccc3oc2=O)cc1
inactive: NCI-H522 30.1 µM | SF-295 44.4 µM | SF-539 30.5 µM | RPMI-8226 18.6 µM | OVCAR-3 25.2 µM | MOLT-4 32.2 µM | HCT-116 28.4 µM | SNB-19 28.4 µM | LOX IMVI 35.2 µM | HL-60 26.7 µM | SW-620 47.5 µM

CCCCCCCCCCCCCCCC(=O)OCC1OC(n2cc(F)c(=O)[nH]c2=O)C(N)C(O)C1O (configuration not stated)
inactive: NCI-H522 17.8 µM | SF-295 17.1 µM | HCC 2998 14.5 µM | SF-539 19.4 µM | RPMI-8226 23.3 µM | OVCAR-3 2.19 µM | MOLT-4 22.8 µM | HCT-116 20 µM | SNB-19 22.2 µM | HOP-92 20.1 µM | LOX IMVI 17.4 µM | HL-60 19.5 µM | SW-620 16.7 µM | CAKI-1 21 µM

CCN1C[C@]2(C)CC[C@H](O)C34C1C(C[C@@H]32)[C@@]1(O)CC[C@H]2C[C@@H]4[C@@H]1[C@H]2O
inactive: NCI-H522 > 100 µM | SF-295 > 100 µM | SF-539 > 100 µM | RPMI-8226 > 100 µM | OVCAR-3 > 100 µM | MOLT-4 > 100 µM | HCT-116 > 100 µM | SNB-19 > 100 µM | HOP-92 > 100 µM | LOX IMVI > 100 µM | HL-60 > 100 µM | SR > 100 µM | SW-620 > 100 µM | CAKI-1 > 100 µM | SK-MEL-2 > 100 µM

COc1cc2c(cc1OC)C(Cc1cc(Br)c(OC)c(OC)c1)=[N+](C)CC2
inactive: NCI-H522 22.8 µM | SF-295 30.5 µM | HCC 2998 > 100 µM | SF-539 > 100 µM | RPMI-8226 43.2 µM | OVCAR-3 28.2 µM | HCT-116 > 100 µM | SNB-19 55.6 µM | HOP-92 28.2 µM | LOX IMVI 39.3 µM | HL-60 36 µM | SW-620 67.3 µM | CAKI-1 > 100 µM | SK-MEL-2 > 100 µM

CC(O)C(C(=O)O)N(CC1(O)OCC(O)C(O)C1O)N=O (configuration not stated)
inactive: NCI-H522 > 100 µM | HCC 2998 > 100 µM | SF-539 > 100 µM | RPMI-8226 > 100 µM | OVCAR-3 > 100 µM | MOLT-4 > 100 µM | HCT-116 > 100 µM | HOP-92 > 100 µM | LOX IMVI > 100 µM | HL-60 > 100 µM | SW-620 > 100 µM | SK-MEL-2 > 100 µM

Brc1ccccc1C1SCc2nc3ccccc3n21 (configuration not stated)
inactive: NCI-H522 13.2 µM | SF-295 23.8 µM | SF-539 17.4 µM | RPMI-8226 13.7 µM | OVCAR-3 13.5 µM | MOLT-4 18.5 µM | HCT-116 8.07 µM | HOP-92 10.8 µM | LOX IMVI 13.2 µM | HL-60 6.71 µM | SR 12.6 µM | SW-620 32.3 µM | CAKI-1 20.7 µM | SK-MEL-2 15.5 µM

O=C(OCc1ccccc1C1CSCSC1)c1cc(C(=O)OCc2ccccc2C2CSCSC2)c(C(=O)OCc2ccccc2C2CSCSC2)cc1C(=O)OCc1ccccc1C1CSCSC1
inactive: NCI-H522 > 100 µM | SF-295 > 100 µM | SF-539 > 100 µM | RPMI-8226 > 100 µM | OVCAR-3 > 100 µM | MOLT-4 > 100 µM | HCT-116 > 100 µM | HOP-92 > 100 µM | LOX IMVI > 100 µM | HL-60 > 100 µM | SR > 100 µM | SW-620 > 100 µM | CAKI-1 > 100 µM | SK-MEL-2 > 100 µM

O=c1[nH]c(-c2ccccc2)nc2ccc(Cl)cc12
inactive: NCI-H522 20.5 µM | SF-295 73.6 µM | HCC 2998 > 100 µM | SF-539 > 100 µM | RPMI-8226 33.2 µM | OVCAR-3 31 µM | MOLT-4 34 µM | HCT-116 > 100 µM | SNB-19 79.3 µM | HOP-92 16.5 µM | SR 85.5 µM | SW-620 29.4 µM | CAKI-1 20.9 µM | SK-MEL-2 47 µM

CCCCCCCCC(=O)N(C)C1C2CN3CCC(O2)C13 (configuration not stated)
inactive: NCI-H522 > 100 µM | SF-295 > 100 µM | HCC 2998 > 100 µM | SF-539 > 100 µM | RPMI-8226 > 100 µM | OVCAR-3 > 100 µM | MOLT-4 > 100 µM | HCT-116 > 100 µM | SNB-19 > 100 µM | LOX IMVI > 100 µM | HL-60 > 100 µM | SW-620 > 100 µM | CAKI-1 48.9 µM | SK-MEL-2 > 100 µM

C#CCNC(=O)N(CC#C)N=O
inactive: NCI-H522 19.5 µM | SF-295 > 100 µM | HCC 2998 > 100 µM | SF-539 > 100 µM | OVCAR-3 > 100 µM | MOLT-4 31 µM | HCT-116 > 100 µM | SNB-19 > 100 µM | HOP-92 > 100 µM | LOX IMVI 38.6 µM | HL-60 25.3 µM | SW-620 > 100 µM | CAKI-1 > 100 µM | SK-MEL-2 > 100 µM
